Source: PMC10528180 (Foods, 2023)
pIC50, pKd: −log10 of the molar value.

Assays:
α-glucosidase [1] = biological target: T1, α-glucosidase (Saccharomyces cerevisiae, UniProt P53341); assay: Inhibition kinetic analysis (Lineweaver-Burk) on α-glucosidase; assay type: biochemical
T1 construct: purchased Sigma-Aldrich Co
Protocol: The reactions of a series of compounds with substrates pNαPG and G3-CNP were tested using the Lineweaver–Burk expression in Equation (1) to calculate the maximum velocity (Vmax) and Michaelis–Menten constant (Km) values. (1) 1/v=Km/Vmax1/[S]+1/Vmax, where Vmax and Km are the maximum velocity of the enzyme and the Michaelis–Menten constant without inhibitor, respectively. [S] is the concentrations of the substrate and inhibitor.

db/db mice = assay: Postprandial blood glucose level measurement after oral starch load; assay type: in vivo; details: for glucose AUC / reduction of glucose AUC of diabetic mice: oral starch 2 g/kg; for reduction of glucose AUC of diabetic mice: vs model
Protocol: db/db mice and C57BL/6J mice were purchased f0rom Beijing Zhishan Health Medical Research Institute. The animal testing procedure was approved by Beijing Huayuan Times Technology Co., Ltd Ethics Committee on the Management and Welfare of Laboratory Animals. (Ethics review batch number: HYSD2023-04) and strictly follows the local and national codes of ethics. All mice were placed in a control chamber at 25 °C and 60% relative humidity with a light/dark period of 12/12 h. During this period, all mice had free access to normal feed and water. […] All mice were given starch (2 g/kg) orally 60 min after treatment. Blood samples were taken from the caudal vein and blood glucose was measured after 0, 30, 60, and 120 min. The area under the curve (AUC) was calculated using the trapezoidal rule.

α-glucosidase [2] = biological target: T1, α-glucosidase; assay: Fluorescence quenching experiment with α-glucosidase (Stern-Volmer, double logarithmic, Van 't Hoff); assay type: binding; details: for pKd: Ka (binding constant) α-glucosidase
Protocol: Based on the previously described techniques, the fluorescence quenching experiment was somewhat modified. […] The reaction solution’s fluorescence intensity was measured in a quartz colorimetric dish using a fluorescence spectrometer (F-7100, Tokyo, Japan) at wavelengths ranging from 295 to 500 nm (emission wavelength) and 280 nm ([…]) (1.0 cm path length). The 5.0 nm excitation and emission slit widths were predetermined.
By determining the quenching constant, it is possible to discriminate between dynamic and static protein fluorescence quenching caused by compounds [39]. […] With the increase in temperature, the binding of the complex is unstable, so the quenching constant decreases. The drop in fluorescence intensity brought on by the interaction of the quencher and the fluorescence group is what causes dynamic quenching. When the collision between the quencher and the fluorescence group intensifies as the temperature rises, the quenching constant rises. The quenching mechanism of the enzyme was further studied using the Stern–Volmer equation:(2) F0/F=1+Kqτ0Q=1+Ksv[Q], where Kq is the bimolecular quenching constant, F0 represents the fluorescence intensity of starch-digesting enzymes in the absence of inhibitors, F represents the fluorescence intensity of starch-digesting enzymes in the presence of inhibitors, and τ0 is the lifetime of the fluorophore in protein (about 10^−8 s).
By calculating the thermodynamic parameters of the quenching process, the binding affinity and the main force of the reaction process were evaluated. The thermodynamic parameters are calculated using the Van ’t Hoff equation:(4) lnKa=−△H/RT+△S/R. (5) △G=△H−T△S. where Ka is the binding constant, R is the universal gas constant, and T represents the test temperature (300.15 K, 305.15 K, 310.15 K). The thermodynamic parameters ΔH, ΔS, and ΔG represent enthalpy change, entropy change, and free energy change, respectively. […] The interaction forces in the reaction process can be roughly divided into four types: hydrophobic interaction, hydrogen bonding, electrostatic interaction, and van der Waals interaction.

α-amylase = biological target: T2, α-amylase (Sus scrofa, UniProt P00690); assay: In vitro α-amylase activity assay (G3-CNP, absorbance 405 nm); assay type: biochemical, porcine
T2 construct: α-amylase (EC 232-565-6, powder, ≥5 units/mg solid) isolated from porcine pancreas; purchased Sigma-Aldrich Co; host or cells: porcine pancreas
T2 sequence (P00690 16-511): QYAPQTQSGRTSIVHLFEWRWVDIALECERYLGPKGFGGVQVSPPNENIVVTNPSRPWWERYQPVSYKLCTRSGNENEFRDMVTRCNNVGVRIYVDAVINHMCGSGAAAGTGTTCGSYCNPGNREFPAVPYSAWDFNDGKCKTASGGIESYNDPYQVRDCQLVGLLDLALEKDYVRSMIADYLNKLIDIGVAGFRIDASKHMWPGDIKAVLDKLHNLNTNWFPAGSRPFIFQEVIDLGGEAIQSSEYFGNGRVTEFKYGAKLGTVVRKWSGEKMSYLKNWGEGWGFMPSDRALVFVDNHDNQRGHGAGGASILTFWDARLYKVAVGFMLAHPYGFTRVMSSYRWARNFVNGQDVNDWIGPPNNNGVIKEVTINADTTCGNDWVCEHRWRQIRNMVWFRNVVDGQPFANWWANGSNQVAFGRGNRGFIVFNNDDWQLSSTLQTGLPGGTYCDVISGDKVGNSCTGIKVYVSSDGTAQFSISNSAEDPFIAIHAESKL
Protocol: The other reagents used in this experiment are analytically pure reagents purchased from Sigma-Aldrich Co. (St. Louis, MI, USA) unless specified otherwise.
The in vitro […] activity assay was determined using spectrophotometry, as previously reported, with only minor modifications. A total of 5 U/mL of α-amylase and the appropriate quantity of 2-chloro-4-nitrophenyl α-D-maltotrioside (G3-CNP) were produced. […] Gradient dilution with a phosphate-buffered solution was used to create sample solutions of various concentrations. First, different concentrations of compound (10 μL), an enzyme solution (40 μL), and potassium phosphate buffer (100 μL) were pre-incubated in 96-well plates at 37 °C for 10 min.
The enzymatic inhibitory activity of the tested compounds was calculated using the following formula: Inhibition %=[(Abs control−Abs sample)/Abs control]×100
The IC50 values of the tested compounds were calculated using nonlinear fitting (logit method).

T1 sequence (P53341 whole entry): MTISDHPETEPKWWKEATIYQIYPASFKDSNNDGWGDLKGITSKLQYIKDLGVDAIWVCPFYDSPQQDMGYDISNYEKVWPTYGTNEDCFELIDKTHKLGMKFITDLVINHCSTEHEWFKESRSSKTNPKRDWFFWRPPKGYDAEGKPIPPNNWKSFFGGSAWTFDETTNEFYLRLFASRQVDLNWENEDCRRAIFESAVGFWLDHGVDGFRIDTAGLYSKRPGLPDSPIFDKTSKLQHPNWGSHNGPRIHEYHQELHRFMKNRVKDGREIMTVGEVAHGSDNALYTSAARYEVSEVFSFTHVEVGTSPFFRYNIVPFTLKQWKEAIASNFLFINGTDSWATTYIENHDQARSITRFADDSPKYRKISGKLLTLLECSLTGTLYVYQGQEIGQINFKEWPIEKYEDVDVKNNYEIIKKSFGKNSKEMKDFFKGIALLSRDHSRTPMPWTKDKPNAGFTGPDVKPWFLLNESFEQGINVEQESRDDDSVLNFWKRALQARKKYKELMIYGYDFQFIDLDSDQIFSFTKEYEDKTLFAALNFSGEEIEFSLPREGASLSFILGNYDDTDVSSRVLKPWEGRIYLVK

O=c1c(O)c(-c2ccc(O)c(O)c2)oc2cc(O[C@@H]3O[C@H](CO)[C@@H](O)[C@H](O)[C@H]3O)cc(O)c12 [Quercimeritrin]
inhibition mode on α-glucosidase (α-glucosidase [1]; Lineweaver-Burk diagram): competitive inhibition
Vmax α-glucosidase (α-glucosidase [1]; [I] 15.6 μM): 0.2151
Vmax α-glucosidase (α-glucosidase [1]; [I] 31.3 μM): 0.2028
Vmax α-glucosidase (α-glucosidase [1]; [I] 62.5 μM): 0.2000
Vmax α-glucosidase (α-glucosidase [1]; [I] 125 μM): 0.1916
Vmax α-glucosidase (α-glucosidase [1]; [I] 250 μM): 0.1890
Vmax α-glucosidase (α-glucosidase [1]; [I] 500 μM): 0.1761
glucose AUC (db/db mice; 100 mg/kg): 43.7 mmol·h/L
reduction of glucose AUC of diabetic mice (db/db mice; 100 mg/kg): 19.0%
glucose AUC (db/db mice; 200 mg/kg): 40.7 mmol·h/L
reduction of glucose AUC of diabetic mice (db/db mice; 200 mg/kg): 24.5%
postprandial blood glucose level (db/db mice; HD group 200 mg/kg, oral starch): significantly lower than that of the control and acarbose groups
fluorescence quenching mechanism, α-glucosidase (α-glucosidase [2]): static quenching
pKd (α-glucosidase [2]; T 300.15 K): 5.94
pKd (α-glucosidase [2]; T 305.15 K): 5.02
pKd (α-glucosidase [2]; T 310.15 K): 4.61
Ksv (quenching constant) α-glucosidase (α-glucosidase [2]; T 300.15 K): 0.17 ±0.03 10^5 /M
n (number of binding sites) α-glucosidase (α-glucosidase [2]; T 300.15 K): 1.35
ΔG α-glucosidase (α-glucosidase [2]; T 300.15 K): -34.1 ± 9.28 kJ/mol
Ksv (quenching constant) α-glucosidase (α-glucosidase [2]; T 305.15 K): 0.19 ±0.02 10^5 /M
n (number of binding sites) α-glucosidase (α-glucosidase [2]; T 305.15 K): 1.20
ΔG α-glucosidase (α-glucosidase [2]; T 305.15 K): -29.3 ± 9.37 kJ/mol
Ka (binding constant) α-glucosidase (α-glucosidase [2]; T 310.15 K): 0.41 ± 0.06 10^5 /M
Ksv (quenching constant) α-glucosidase (α-glucosidase [2]; T 310.15 K): 0.21 ±0.04 10^5 /M
n (number of binding sites) α-glucosidase (α-glucosidase [2]; T 310.15 K): 1.09
ΔG α-glucosidase (α-glucosidase [2]; T 310.15 K): -27.4 ± 7.84 kJ/mol
ΔH α-glucosidase (α-glucosidase [2]; Van 't Hoff, 300.15-310.15 K): -237 ± 23.42 kJ/mol
ΔS α-glucosidase (α-glucosidase [2]; Van 't Hoff, 300.15-310.15 K): -677.34 ±87.38 J/mol/K
n (number of binding sites) α-glucosidase (α-glucosidase [2]; text summary over temperatures): ~1
pIC50 (α-amylase): < 3.60
inhibition at 500 µM (α-amylase; at 500 µM, read-out: α-Amylase inhibition): 57%
